Data from patent US20250000849A1, “COMPOSITE COMPOSITION CONTAINING ANGIOTENSIN RECEPTOR BLOCKER AND SGLT2 INHIBITOR” (MEDITAKE CO., LTD., priority 2021, published 2025).

What was measured:
Format in all cases: in vivo
Set-up in all cases: unit not given here
[1] = test system: spontaneously hypertensive rat (SHR); test: Blood pressure-lowering effect of combined administration of angiotensin receptor blocker and dapagliflozin in SHR; settings: Dapagliflozin 1 mg/kg/day
Protocol: (§1) The animals were housed in a room with a temperature of […] relative humidity of 50±10%, and a 12-hour light/dark cycle, and food and water were provided ad libitum.
(§2) All data are expressed as mean±S.E.M. Blood pressure measurements were schematized using GraphPad Prism 9 (GraphPad Software Inc., San Diego, CA).
Blood pressure was measured daily immediately before (0 hr) and 4 hours after (4 hr) dosing while administering the drug for a total of 19 days, and the recovery of blood pressure was monitored during a 1-week recovery period after the end of administration.

[2] = test system: spontaneously hypertensive rat (SHR); test: Blood pressure-lowering effect of combined administration of angiotensin receptor blocker and empagliflozin in SHR; settings: Empagliflozin 1 mg/kg/day
Protocol: as §1, §2
Blood pressure was measured daily immediately before (0 hr) and 4 hours after (4 hr) dosing while administering the drug for a total of 19 days, and the recovery of blood pressure was monitored during a 1-week recovery period after the end of administration. Specifically, the animals were divided into two groups to evaluate the blood pressure response when fimasartan (Group 1) or dapagliflozin (Group 2) was administered alone, and to evaluate the blood pressure response to the addition of the other drugs in sequentially increasing doses, and the results are shown in FIG. 2.
The experiments were conducted in the same manner as in Example 3 above, but using empagliflozin as an SGLT2 inhibitor.
The angiotensin receptor blockers, fimasartan, azilsartan, and olmesartan were divided by dose, and each administered alone or in combination with empagliflozin, and the results of blood pressure measurements in each experimental group are shown in Table 4 and FIGS. 7 to 9 below.

[3] = test system: spontaneously hypertensive rat (SHR); test: as above; settings: Empagliflozin 1 mg/kg/day, Day 14 (4 h)

## CCOc1ccc(Cc2cc([C@@H]3O[C@H](CO)[C@@H](O)[C@H](O)[C@H]3O)ccc2Cl)cc1 [Dapagliflozin, dapagliflozin]
[1]; Day 1 (pre-dose)
  Blood pressure, Mean: 100.0
[1]; Day 7 (4 h)
  Blood pressure, Mean: 101.2
[1]; Day 14 (4 h)
  Blood pressure, Mean: 96.5
[1]; Recovery
  Blood pressure, Mean: 105.5

## OC[C@H]1O[C@@H](c2ccc(Cl)c(Cc3ccc(O[C@H]4CCOC4)cc3)c2)[C@H](O)[C@@H](O)[C@@H]1O [Empagliflozin, empagliflozin]
[2]; Day 1 (pre-dose)
  Blood pressure, Mean: 100.0
[2]; Day 7 (4 h)
  Blood pressure, Mean: 97.1
[2]; Recovery
  Blood pressure, Mean: 101.8
[3]
  Blood pressure, Mean: 96.4
